Laboratory results: US11339193B2, “CDP protein secretion inhibitors” (KEZAR LIFE SCIENCES, priority 2018, dated 2022)
Where two headings read alike, the source gives them in different places. Peptide text beside a SMILES is read from it.

Experiments:
Assay type in all cases: cell-based
IL7Rss-Gluc = assay: IL7Rss assay
Experimental: The mature domain of secreted luciferase from Gaussia princeps (GLuc) was cloned into pcDNA5/FRT/TO. The signal sequence plus four amino acids of the mature domain from IL7R ([…]) (SEQ ID NO:6) were cloned upstream of GLuc mature domain and used in transient transfection experiment. HEK-293T T-rex cells were cultured in Dulbecco's modified Eagle's medium with 10% FBS at 5% CO2. Cells were plated 1×10e6 cells per well in a 6-well plate and incubated for 6 h. Cells were transiently transfected with IL7Rss-Gluc using Lipofectamine 2000 (Invitrogen). After overnight incubation, transfected cells were replated in a clear-bottomed, black 96-well plate at a density of 20,000 cells per well. Six hours after plating, the cells were treated with doxycycline (1 μg/ml) and increasing concentrations of the indicated compounds for 24 h. Secreted luciferase in the conditioned media was quantified by luminescence using the BioLux Gaussia Luciferase Assay Kit (New England Biolabs, Ipswich, Mass., USA) and a SpectraMax M5 plate reader (Molecular Devices).

[1] = test system: NCI-H929 multiple myeloma cell line; assay: H929 assay (cell viability, Celltiter-Glo); settings: Homo sapiens, NCI-H929; 48 hours, cell viability; read-out: H929 EC50
Method in brief: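 Cells plated in RPMI 1640 with 10% FBS and 2 mM glutamine, treated with compound dilutions in DMSO/media. Incubation 48 h at 37° C, 5% CO2. Viability from luciferase luminescence signal.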

FLT3ss-Gluc = assay: FLT3ss assay
Experimental: The mature domain of secreted luciferase from Gaussia princeps (GLuc) was cloned into pcDNA5/FRT/TO. The signal sequence plus four amino acids of the mature domain from FLT3 ([…]) (SEQ ID NO:7) were cloned upstream of GLuc mature domain and used in transient transfection experiment.
HEK-293T T-rex cells were cultured in Dulbecco's modified Eagle's medium with 10% FBS at 5% CO2. Cells were plated 1×10e6 cells per well in a 6-well plate and incubated for 6 h. Cells were transiently transfected with FLT3ss-Gluc using Lipofectamine 2000 (Invitrogen). After overnight incubation, transfected cells were replated in a clear-bottomed, black 96-well plate at a density of 20,000 cells per well. Six hours after plating, the cells were treated with doxycycline (1 μg/ml) and increasing concentrations of the indicated compounds for 24 h. Secreted luciferase in the conditioned media was quantified by luminescence using the BioLux Gaussia Luciferase Assay Kit (New England Biolabs, Ipswich, Mass., USA) and a SpectraMax M5 plate reader (Molecular Devices).

[2] = test system: BT474 breast tumor cell line; assay: BT474 assay (Alamar blue); settings: Homo sapiens, BT-474, 72 h
Method in brief: (§1)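 For both lines, 5000 cells/well were exposed to compound or a 1% DMSO-medium control for 72 h unless otherwise specified. Signal was normalized to the DMSO control.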

[3] = test system: Prl-ss+10aa/Gaussia Luciferase; assay: Prl-ss-Gluc assay (constitutively active or 24 hr Dox inducible); settings: Flp-In 293 T-REx cells, 24 hours; read-out: Prl IC50
Method in brief: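 Stable Flp-In 293 T-REx lines express Prl signal sequence+10aa fused to Gaussia luciferase, either constitutively (pcDNA5/FRT) or under the T-REx promoter (pcDNA5/FRT/TO). Cells plated the day before; compounds in DMSO/media (with doxycycline for the inducible line, 24 h) incubated at 37 °C, 5% CO2.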

[4] = test system: VCAMss+10aa/Gaussia Luciferase; assay: VCAM-ss-Gluc assay (constitutively active or Dox induced); settings: Flp-In 293 T-REx cells, 24 hours
Method in brief: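 Stable cell lines secreting a VCAM signal sequence+10aa/Gaussia luciferase fusion, expressed either constitutively or under T-REx doxycycline control. Cells plated the day before; compound dilutions in DMSO/media (with doxycycline for the induced line) added and incubated at 37° C, 5% CO2.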

[5] = test system: JJN3 plasma cell leukemia cell line; assay: JJN-3 assay (Alamar blue); settings: Homo sapiens, 72 h
Method in brief: as §1

| Structure (SMILES) | IC50 (IL7Rss-Gluc; read-out: IL7Rss IC50; HEK-293T T-rex cells, transient transfection, doxycycline, 24 h) [nM] | EC50 [1] [nM] | IC50 (FLT3ss-Gluc; read-out: FLT3ss IC50; HEK-293T T-rex cells, transient transfection, doxycycline, 24 h) [nM] | EC50 [2] [nM] | IC50 [3] [nM] | IC50 [4] [nM] | EC50 [5] [nM] | IC50 (IL7Rss-Gluc; HEK-293T T-rex cells, transient transfection, doxycycline, 24 h; read-out: IL7Rss IC50) [nM] | IC50 (FLT3ss-Gluc; HEK-293T T-rex cells, transient transfection, doxycycline, 24 h; read-out: FLT3ss IC50) [nM] |
| --- | --- | --- | --- | --- | --- | --- | --- | --- | --- |
| C#CC[C@H]1OC(=O)[C@H](C)N(C)C(C)[C@H](C[C@H](C)CCCC)NC(=O)[C@H](Cc2ccccc2)N(C)C(=O)[C@H](CC(C)C)NC(=O)[C@H](CC(C)C)N(C)C(=O)[C@H](C[C@H](C)CCCC)NC1=O (some centres unmarked) [C-01] | 23 | 454 | 52 | 730 | 11600 | 15 | 222 | – | – |
| CC(C)C[C@@H]1NC(=O)[C@H](Cc2cn(Cc3ccccc3)c3ccccc23)N(C)C(=O)[C@H](CC(C)C)NC(=O)[C@H](CC(C)C)N(C)C(=O)[C@H](CC(C)C)NC(=O)[C@@H](CCC#N)OC(=O)[C@H](C)N(C)C1=O [C-16] (HELM PEPTIDE1{L.[meA].[N#CCC[C@@H](O[*:1])C(=O)[*:2]].L.[meL].L.[CN([C@@H](Cc1cn(Cc2ccccc2)c2ccccc12)C(=O)[*:2])[*:1]]}$PEPTIDE1,PEPTIDE1,1:R1-7:R2$$$V2.0) | – | 941 | – | 745 | 1820 | 82 | 245 | 10 | 32 |
